Where two headings read alike, the source gives them in different places.
Legend:
Test in all cases: cell-based
[1] = target: T1, rat CB2 receptor (Rattus norvegicus, UniProt Q9QZN9); type: cell-based; settings: for inverse agonist mark, rat CB2 receptor: asterisk at the compound number
T1 sequence (Q9QZN9 1-360): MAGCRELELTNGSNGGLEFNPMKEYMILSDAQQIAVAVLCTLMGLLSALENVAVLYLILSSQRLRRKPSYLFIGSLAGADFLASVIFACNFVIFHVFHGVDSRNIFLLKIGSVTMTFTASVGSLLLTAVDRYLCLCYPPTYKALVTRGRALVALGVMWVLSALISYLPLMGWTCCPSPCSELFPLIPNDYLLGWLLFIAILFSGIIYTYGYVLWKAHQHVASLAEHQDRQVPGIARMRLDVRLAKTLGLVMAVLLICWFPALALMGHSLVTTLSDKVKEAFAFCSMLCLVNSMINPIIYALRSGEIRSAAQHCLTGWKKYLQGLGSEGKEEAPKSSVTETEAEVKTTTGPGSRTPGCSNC

[2] = target: human CB1 receptor (Homo sapiens, UniProt P21554)
human CB1 receptor, sequence (P21554 whole entry): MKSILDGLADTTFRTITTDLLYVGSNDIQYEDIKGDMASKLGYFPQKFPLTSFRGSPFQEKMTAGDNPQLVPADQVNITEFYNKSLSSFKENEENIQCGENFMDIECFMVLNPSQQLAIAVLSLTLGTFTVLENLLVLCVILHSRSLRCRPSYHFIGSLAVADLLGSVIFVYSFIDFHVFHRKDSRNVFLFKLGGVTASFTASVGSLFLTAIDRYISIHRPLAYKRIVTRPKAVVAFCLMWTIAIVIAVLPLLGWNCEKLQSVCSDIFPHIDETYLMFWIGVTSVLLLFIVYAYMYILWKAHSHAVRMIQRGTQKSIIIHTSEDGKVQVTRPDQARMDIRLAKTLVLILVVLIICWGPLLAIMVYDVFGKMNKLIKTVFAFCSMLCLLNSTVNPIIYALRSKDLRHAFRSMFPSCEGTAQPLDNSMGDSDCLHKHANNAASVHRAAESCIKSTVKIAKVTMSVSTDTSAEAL

[3] = target: human CB2 receptor (Homo sapiens, UniProt P34972); type: cell-based
human CB2 receptor, sequence (P34972 whole entry): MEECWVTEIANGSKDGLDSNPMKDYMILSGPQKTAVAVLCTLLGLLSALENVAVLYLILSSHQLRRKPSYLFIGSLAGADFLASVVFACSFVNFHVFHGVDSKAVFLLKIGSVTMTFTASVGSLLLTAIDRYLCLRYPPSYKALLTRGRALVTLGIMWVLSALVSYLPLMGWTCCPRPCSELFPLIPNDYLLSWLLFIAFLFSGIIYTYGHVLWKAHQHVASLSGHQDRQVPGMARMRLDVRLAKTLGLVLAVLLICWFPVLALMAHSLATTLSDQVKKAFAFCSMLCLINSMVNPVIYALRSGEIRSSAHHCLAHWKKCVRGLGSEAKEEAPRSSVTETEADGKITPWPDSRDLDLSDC

[4] = change in intracellular cAMP, CHO-K1 hCB2 cells, class AR, read-out: EC50 values for human CB2 receptor

SMILES	EC50 [1] [nM]	EC50 [2] [nM]	EC50 [3] [nM]	also measured
CC(C)(C)NC(=O)c1cnc2c(c1)N(Cc1ccc(F)cc1)C(=O)CO2 [Example 218, N-tert-butyl-1-(4-fluorobenzyl)-2-oxo-2,3-dihydro-1H-pyrido[2,3-b][1,4]oxazine-7-carboxamide]	≤ 30	> 30000	≤ 30	
CC(C)(C)NC(=O)c1cnc2c(c1)N(S(=O)(=O)c1ccc(F)cc1)CCO2 [Example 7, N-tert-butyl-1-(4-fluoro-phenylsulfonyl)-2,3-dihydro-1H-pyrido[2,3-b][1,4]oxazine-7-carboxamide]	≤ 30		≤ 30	
CC(C)(C)c1cc(NC(=O)c2cnc3c(c2)N(S(=O)(=O)N2CCC(C(F)(F)F)CC2)CCO3)no1 [Example 154, N-(5-tert-butylisoxazol-3-yl)-1-(4-(trifluoromethyl)piperidin-1-ylsulfonyl)-2,3-dihydro-1H-pyrido[2,3-b][1,4]oxazine-7-carboxamide]	≤ 30			inverse agonist mark, rat CB2 receptor [1]: 146, 148, 149, 150, 151, 152, 153*, 154*, 155, 156, 157, 163, 164,; inverse agonist mark, human CB2 receptor ([3]; asterisk at the compound number): 121, 124, 131, 136, 137, 138, 139, 146, 150, 152, 154*, 155, 157,
O=C(O)CC1COCCN1C(=O)c1cnc2c(c1)N(S(=O)(=O)c1ccc(C(F)(F)F)cc1)CCO2 (stereo not drawn) [Example 207]				EC50 ([1]; change in intracellular cAMP, CHO-K1 rCB2 cells, class AR, read-out: EC50 values for rat CB2 receptor): > 30000 nM; EC50 [3, 4]: > 30000 nM
CC(C)(C)c1nnc(-c2cnc3c(c2)N(S(=O)(=O)c2ccc(F)cc2)CCO3)o1 [Example 212, 7-(5-tert-butyl-1,3,4-oxadiazol-2-yl)-1-(4-fluorophenylsulfonyl)-2,3-dihydro-1H-pyrido[2,3-b][1,4]oxazine]	≤ 30		≤ 30	
CC(C)(C)NC(=O)c1cnc2c(c1)N(S(=O)(=O)c1ccc(C#N)cc1)CCO2 [Example 3, N-tert-butyl-1-(4-cyanophenylsulfonyl)-2,3-dihydro-1H-pyrido[2,3-b][1,4]oxazine-7-carboxamide]	≤ 30		≤ 30	
CC(C)(C)NC(=O)c1cnc2c(c1)N(S(=O)(=O)c1ccc(Cl)cc1)CCO2 [Example 24, N-tert-butyl-1-(4-chlorophenylsulfonyl)-2,3-dihydro-1H-pyrido[2,3-b][1,4]oxazine-7-carboxamide]	≤ 30		≤ 30	
O=C(NC1CCCC1)c1cnc2c(c1)N(S(=O)(=O)c1ccc(Cl)cc1)CCO2 [Example 25, 1-(4-chlorophenyl-sulfonyl)-N-cyclopentyl-2,3-dihydro-1H-pyrido[2,3-b][1,4]oxazine-7-carboxamide]	≤ 30		≤ 30	
CC(C)(CO)CNC(=O)c1cnc2c(c1)N(S(=O)(=O)N1CCC(Cl)CC1)CCO2 [Example 187, 1-(4-chloropiperidin-1-ylsulfonyl)-N-(3-hydroxy-2,2-dimethylpropyl)-2,3-dihydro-1H-pyrido[2,3-b][1,4]oxazine-7-carboxamide]	≤ 30		> 30000	
CC(C)(C)NC(=O)c1cnc2c(c1)N(S(=O)(=O)N1CCC(F)(F)CC1)CCO2 [Example 156, N-tert-butyl-1-(4,4-difluoropiperidin-1-ylsulfonyl)-2,3-dihydro-1H-pyrido[2,3-b][1,4]oxazine-7-carboxamide]	≤ 30		≤ 30	
O=C(N[C@H]1CC[C@H](O)CC1)c1cnc2c(c1)N(S(=O)(=O)c1ccc(Cl)c(Cl)c1)CCO2 [Example 134, 1-(3,4-dichlorophenyl-sulfonyl)-N-(trans-4-hydroxycyclohexyl)-2,3-dihydro-1H-pyrido[2,3-b][1,4]oxazine-7-carboxamide]		> 30000		EC50 [3, 4]: > 30000 nM
CCC(C)(C)NC(=O)c1cnc2c(c1)N(S(=O)(=O)N1CCC(C(F)(F)F)CC1)CCO2 [Example 151, N-tert-pentyl-1-(4-(trifluoromethyl)piperidin-1-ylsulfonyl)-2,3-dihydro-1H-pyrido[2,3-b][1,4]oxazine-7-carboxamide]	≤ 30		≤ 30	
CCC(C)(C)NC(=O)c1cnc2c(c1)N(S(=O)(=O)N1CCC(Cl)CC1)CCO2 [Example 185, 1-(4-chloropiperidin-1-ylsulfonyl)-N-tert-pentyl-2,3-dihydro-1H-pyrido[2,3-b][1,4]oxazine-7-carboxamide]	≤ 30		> 30000	
CN1CCN(S(=O)(=O)N2CCOc3ncc(C(=O)NC(C)(C)C)cc32)CC1 [Example 174, N-tert-butyl-1-(4-methylpiperazin-1-ylsulfonyl)-2,3-dihydro-1H-pyrido[2,3-b][1,4] oxazine-7-carboxamide]		> 30000	> 30000	
CC(C)(C)CNC(=O)c1cnc2c(c1)N(S(=O)(=O)c1ccc(F)cc1)CCO2 [Example 11]	≤ 30		≤ 30	
O=C(c1cnc2c(c1)N(S(=O)(=O)c1ccc(Cl)c(Cl)c1)CCO2)N1CCN(S(=O)(=O)c2ccccc2)CC1 [Example 118, (1-(3,4-dichlorophenyl-sulfonyl)-2,3-dihydro-1H-pyrido[2,3-b][1,4]oxazin-7-yl)(4-(phenylsulfonyl)piperazin-1-yl)methanone]				inverse agonist mark, rat CB2 receptor [1]: 118*, 120, 123, 125, 127, 134, 143, 145, 161, 174, 175, 176, 198,; EC50 [3, 4]: > 30000 nM
CC(C)(CO)CNC(=O)c1cnc2c(c1)N(S(=O)(=O)N1CC(F)(F)C1)CCO2 [Example 196, 1-(3,3-difluoroazetidin-1-ylsulfonyl)-N-(3-hydroxy-2,2-dimethylpropyl)-2,3-dihydro-1H-pyrido[2,3-b][1,4]oxazine-7-carboxamide]	≤ 30		> 30000	
CC(C)(C)NC(=O)c1cnc2c(c1)N(S(=O)(=O)c1ccc3ccccc3c1)CCO2 [Example 88, N-tert-butyl-1-(naphthalen-2-ylsulfonyl)-2,3-dihydro-1H-pyrido[2,3-b][1,4]oxazine-7-carboxamide]		> 30000	> 30000	
CCN(CC)C(=O)c1cnc2c(c1)N(S(=O)(=O)c1cccnc1)CCO2 [Example 18, N,N-diethyl-1-(pyridin-3-ylsulfonyl)-2,3-dihydro-1H-pyrido[2,3-b][1,4]oxazine-7-carboxamide]		> 30000		EC50 [3, 4]: > 30000 nM
CC(C)(C)NC(=O)c1cnc2c(c1)N(S(=O)(=O)N1CCC(Cl)CC1)CCO2 [Example 184, N-tert-butyl-1-(4-chloropiperidin-1-ylsulfonyl)-2,3-dihydro-1H-pyrido[2,3-b][1,4]oxazine-7-carboxamide]	≤ 30		> 30000	
CCN(CCN(C)C)C(=O)c1cnc2c(c1)N(S(=O)(=O)c1ccc(C(F)(F)F)cc1)CCO2 [Example 38, N-(2-(dimethylamino)-ethyl)-N-ethyl-1-(4-(trifluoromethyl)phenylsulf-onyl)-2,3-dihydro-1H-pyrido[2,3-b][1,4]oxazine-7-carboxamide]		> 30000		EC50 [3, 4]: > 30000 nM
O=C(NC1(C(=O)O)CCC1)c1cnc2c(c1)N(S(=O)(=O)c1ccc(C(F)(F)F)cc1)CCO2 [Example 208, 1-(1-(4-(trifluoromethyl)phenylsulfonyl)-2,3-dihydro-1H-pyrido[2,3-b][1,4]oxazine-7-carboxamido)cyclobutanecarboxylic acid]		> 30000		EC50 [3, 4]: > 30000 nM
CC(C)(C)c1cc(NC(=O)c2cnc3c(c2)N(S(=O)(=O)N2CCC(F)(F)C2)CCO3)no1 [Example 165, N-(5-tert-butylisoxazol-3-yl)-1-(3,3-difluoro-pyrrolidin-1-ylsulfonyl)-2,3-dihydro-1H-pyrido-[2,3-b][1,4]oxazine-7-carboxamide]			> 30000	inverse agonist mark, rat CB2 receptor [1]: 108, 114, 117, 122, 126, 128, 129, 130, 141, 147, 162*, 165*, 179,

From patent publication US7960377B2 (priority 2008, dated 2011)
